Data taken from ChEMBL document CHEMBL4431324, “Comparative Analysis of Binding Kinetics and Thermodynamics of Dipeptidyl Peptidase-4 Inhibitors and Their Relationship to Structure” (J Med Chem, 2016).
Each block holds one compound with its values, some of them ahead of it.

Experiments:
[1] = target: Muscarinic acetylcholine receptor M3 (Homo sapiens, UniProt P20309); assay: Inhibition of M3 receptor (unknown origin)
[2] = Lipophilicity, log D of the compound at pH 7.4; format: physicochemical; settings: buffer
[3] = target: T1, Muscarinic acetylcholine receptor M2 (Homo sapiens, UniProt P08172); assay: Inhibition of M2 receptor (unknown origin)
T1 sequence (P08172 whole entry): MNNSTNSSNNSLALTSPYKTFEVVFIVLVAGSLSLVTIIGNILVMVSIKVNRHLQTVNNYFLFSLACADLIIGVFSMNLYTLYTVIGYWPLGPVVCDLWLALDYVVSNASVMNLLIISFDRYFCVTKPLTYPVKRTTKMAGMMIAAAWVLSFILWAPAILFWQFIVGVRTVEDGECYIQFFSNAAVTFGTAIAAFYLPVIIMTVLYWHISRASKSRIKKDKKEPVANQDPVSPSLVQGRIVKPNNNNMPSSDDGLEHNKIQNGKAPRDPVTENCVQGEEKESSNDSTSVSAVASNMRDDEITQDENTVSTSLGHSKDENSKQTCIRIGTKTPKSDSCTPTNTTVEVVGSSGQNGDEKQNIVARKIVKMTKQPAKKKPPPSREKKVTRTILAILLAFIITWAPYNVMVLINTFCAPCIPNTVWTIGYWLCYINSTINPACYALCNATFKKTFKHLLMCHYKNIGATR

[4] = Renal clearance in DPP4 knockout mouse at 0.01 mg/kg, iv; format: ADME, organism-based; settings: in vivo
[5] = Cmax in human plasma at 5 mg; format: ADME, cell-free; design: dose 5 mg
[6] = Renal clearance in wild type mouse at 0.01 mg/kg, iv; format: ADME, organism-based; settings: in vivo
Dipeptidyl peptidase 4 [7] = target: T2, Dipeptidyl peptidase 4 (Homo sapiens, UniProt P27487)
T2 sequence (P27487 whole entry): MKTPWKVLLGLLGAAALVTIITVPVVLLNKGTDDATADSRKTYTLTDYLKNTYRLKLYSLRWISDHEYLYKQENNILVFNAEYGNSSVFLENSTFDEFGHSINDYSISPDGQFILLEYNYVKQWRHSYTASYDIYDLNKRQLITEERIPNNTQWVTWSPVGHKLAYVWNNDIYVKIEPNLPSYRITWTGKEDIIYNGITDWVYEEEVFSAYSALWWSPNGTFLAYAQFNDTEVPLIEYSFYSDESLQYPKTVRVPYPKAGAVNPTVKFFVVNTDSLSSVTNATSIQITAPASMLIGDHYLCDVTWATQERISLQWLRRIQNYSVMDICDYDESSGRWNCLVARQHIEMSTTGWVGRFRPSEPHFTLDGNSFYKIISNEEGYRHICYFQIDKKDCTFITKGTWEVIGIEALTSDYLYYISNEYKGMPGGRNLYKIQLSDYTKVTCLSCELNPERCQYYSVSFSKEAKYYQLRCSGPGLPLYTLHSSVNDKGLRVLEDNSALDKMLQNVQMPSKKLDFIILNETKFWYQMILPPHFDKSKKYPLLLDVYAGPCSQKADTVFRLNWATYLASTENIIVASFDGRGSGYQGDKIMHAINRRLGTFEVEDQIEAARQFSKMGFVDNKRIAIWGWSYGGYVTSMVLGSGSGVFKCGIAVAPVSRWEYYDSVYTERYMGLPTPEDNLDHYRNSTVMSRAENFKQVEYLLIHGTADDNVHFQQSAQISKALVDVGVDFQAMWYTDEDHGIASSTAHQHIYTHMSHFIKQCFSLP

Dipeptidyl peptidase 4 [8] = target: T2, Dipeptidyl peptidase 4; remark: listed apart in the source
Description: Binding affinity to human recombinant DPP4 (39 to 766 residues) by surface plasmon resonance analysis

Muscarinic acetylcholine receptor M3, sequence (P20309 whole entry): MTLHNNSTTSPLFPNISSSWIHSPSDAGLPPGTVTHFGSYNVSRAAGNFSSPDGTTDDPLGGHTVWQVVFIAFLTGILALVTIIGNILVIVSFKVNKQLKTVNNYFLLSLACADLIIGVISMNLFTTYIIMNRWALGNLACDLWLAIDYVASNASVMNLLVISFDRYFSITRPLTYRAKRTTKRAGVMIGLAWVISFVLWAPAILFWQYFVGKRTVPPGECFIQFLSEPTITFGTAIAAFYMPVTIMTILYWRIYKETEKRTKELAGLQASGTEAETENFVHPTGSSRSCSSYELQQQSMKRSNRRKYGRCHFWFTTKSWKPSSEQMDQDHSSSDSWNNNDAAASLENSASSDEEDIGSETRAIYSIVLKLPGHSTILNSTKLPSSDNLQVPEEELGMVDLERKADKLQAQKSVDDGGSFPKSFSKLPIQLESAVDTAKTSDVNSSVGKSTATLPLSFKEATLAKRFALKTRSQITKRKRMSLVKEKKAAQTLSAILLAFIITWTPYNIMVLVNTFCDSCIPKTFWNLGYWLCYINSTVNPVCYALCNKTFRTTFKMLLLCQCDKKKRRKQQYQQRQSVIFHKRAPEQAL

IC50 [1]: 150 nM
logD [2]: 0 to 1.6
IC50 [3]: 150 nM
Compound: CC(C)=CCn1c(N2CCC[C@H](N)C2)nc2c1c(=O)n(CC(=O)c1ccccc1)c(=O)n2C

logD [2]: 0 to 1.6
Compound: Cn1c(=O)c2c(nc(N3CCCC(N)C3)n2Cc2ccccc2)n(C)c1=O (stereo unspecified)

CL [4]: 24.2%
logD [2]: 0 to 1.6
Cmax [5]: 10 nM
CL [6]: 2.7%
Compound: CC#CCn1c(N2CCC[C@@H](N)C2)nc2c1c(=O)n(Cc1nc(C)c3ccccc3n1)c(=O)n2C [LINAGLIPTIN]

logD [2]: 0 to 1.6
Kd (Dipeptidyl peptidase 4 [7]): 246 nM
Kd (Dipeptidyl peptidase 4 [8]): 806 nM
Compound: O=c1[nH]c(=O)c2c(nc(N3CCNCC3)n2Cc2ccccc2)[nH]1
